System: angioedema in CSU patients
Assay: Phase 2 CSU study: angioedema activity score over 7 days (AAS7)
Format: in vivo, human
Details: 400 mg QPM; for AAS7 Post-baseline Mean (SD) / Participants with AAS7 = 0, Responder n (%) / AAS7 % Change difference for rilzabrutinib vs. placebo LS Mean (95% CI) / AAS7 % Change from baseline LS Mean (SE) / AAS7 Change difference for rilzabrutinib vs. placebo LS Mean (95% CI) / AAS7 Change from baseline LS Mean (SE) / AAS7 = 0, Non-responder n (%) / AAS7 = 0, OR (95% CI) for rilzabrutinib vs. placebo / AAS7 = 0, RRD (%) for rilzabrutinib vs. placebo (95% CI): angioedema at baseline; for Non-responder n (%), AAS7 = 0 / OR (95% CI) for rilzabrutinib vs. placebo, AAS7 = 0 / RRD (%) for rilzabrutinib vs. placebo (95% CI), AAS7 = 0 / Responder n (%), AAS7 = 0: outlier removed
From the text: The study comprises a 12 week, randomized, double-blind, placebo-controlled, multi-center, dose-ranging efficacy and safety phase, followed by a 40 week open label extension (OLE) phase (see FIG. 1). The study consists of three phases and an optional OLE phase. […] The weekly angioedema activity score (AAS7) was proposed as a tertiary endpoint. […] Patients were to complete the AAS using the e-diary. The e-diary was to be used once daily on the same time of each day recording of participant's answers to the angioedema activity score over 7 days (AAS7) questionnaire.

CC(C)(C=C(C#N)C(=O)N1CCC[C@@H](n2nc(-c3ccc(Oc4ccccc4)cc3F)c3c(N)ncnc32)C1)N1CCN(C2COC2)CC1 [rilzabrutinib, (R)-2-[3-[4-amino-3-(2-fluoro-4-phenoxy-phenyl)pyrazolo[3,4-d]pyrimidin-1-yl]piperidine-1-carbonyl]-4-methyl-4-[4-(oxetan-3-yl)piperazin-1-yl]pent-2-enenitrile]
AAS7 Post-baseline Mean (SD) (Week 8, omalizumab-naïve): 24.98 (23.29)
Participants with AAS7 = 0, Responder n (%) (Week 8, omalizumab-naïve): 7 (25.9) n (%)
AAS7 % Change difference for rilzabrutinib vs. placebo LS Mean (95% CI) (Week 9, ITT): 1.53 (−27.52, 30.59) %
AAS7 % Change from baseline LS Mean (SE) (Week 9, ITT): −48.50 (10.95) %
AAS7 Change difference for rilzabrutinib vs. placebo LS Mean (95% CI) (Week 9, ITT): 2.98 (−7.44, 13.40)
AAS7 Change from baseline LS Mean (SE) (Week 9, ITT): −26.47 (3.93)
AAS7 Post-baseline Mean (SD) (Week 9, ITT): 27.24 (21.46)
Non-responder n (%), AAS7 = 0 (Week 9, omalizumab-naïve): 24 (64.9) n (%)
OR (95% CI) for rilzabrutinib vs. placebo, AAS7 = 0 (Week 9, omalizumab-naïve): 0.520
RRD (%) for rilzabrutinib vs. placebo (95% CI), AAS7 = 0 (Week 9, omalizumab-naïve): −15.0 %
Responder n (%), AAS7 = 0 (Week 9, omalizumab-naïve): 13 (35.1) n (%)
AAS7 % Change from baseline LS Mean (SE) (Week 9, omalizumab-naïve): −47.25 (11.58) %
AAS7 = 0, Non-responder n (%) (Week 9, omalizumab-naïve): 22 (81.5) n (%)
AAS7 = 0, OR (95% CI) for rilzabrutinib vs. placebo (Week 9, omalizumab-naïve): 0.431
AAS7 = 0, RRD (%) for rilzabrutinib vs. placebo (95% CI) (Week 9, omalizumab-naïve): −15.5 %
AAS7 Post-baseline Mean (SD) (Week 9, omalizumab-naïve): 27.96 (21.62)
Participants with AAS7 = 0, Responder n (%) (Week 9, omalizumab-naïve): 5 (18.5) n (%)
AAS7 % Change difference for rilzabrutinib vs. placebo LS Mean (95% CI) (Week 10, ITT): −1.14 (−41.08, 38.79) %
AAS7 % Change from baseline LS Mean (SE) (Week 10, ITT): −50.13 (14.94) %
AAS7 Change difference for rilzabrutinib vs. placebo LS Mean (95% CI) (Week 10, ITT): 2.53 (−8.76, 13.81)
AAS7 Change from baseline LS Mean (SE) (Week 10, ITT): −27.81 (4.28)
AAS7 Post-baseline Mean (SD) (Week 10, ITT): 26.59 (23.15)
Non-responder n (%), AAS7 = 0 (Week 10, omalizumab-naïve): 20 (54.1) n (%)
OR (95% CI) for rilzabrutinib vs. placebo, AAS7 = 0 (Week 10, omalizumab-naïve): 0.927
RRD (%) for rilzabrutinib vs. placebo (95% CI), AAS7 = 0 (Week 10, omalizumab-naïve): −1.9 %
Responder n (%), AAS7 = 0 (Week 10, omalizumab-naïve): 17 (45.9) n (%)
AAS7 = 0, Non-responder n (%) (Week 10, omalizumab-naïve): 20 (74.1) n (%)
AAS7 = 0, OR (95% CI) for rilzabrutinib vs. placebo (Week 10, omalizumab-naïve): 0.616
AAS7 = 0, RRD (%) for rilzabrutinib vs. placebo (95% CI) (Week 10, omalizumab-naïve): −9.2 %
AAS7 Post-baseline Mean (SD) (Week 10, omalizumab-naïve): 27.70 (22.96)
Participants with AAS7 = 0, Responder n (%) (Week 10, omalizumab-naïve): 7 (25.9) n (%)
AAS7 % Change difference for rilzabrutinib vs. placebo LS Mean (95% CI) (Week 11, ITT): 7.61 (−19.90, 35.12) %
AAS7 Change difference for rilzabrutinib vs. placebo LS Mean (95% CI) (Week 11, ITT): 5.18 (−6.05, 16.41)
AAS7 Change from baseline LS Mean (SE) (Week 11, ITT): −28.68 (4.16)
AAS7 Post-baseline Mean (SD) (Week 11, ITT): 26.34 (24.19)
Non-responder n (%), AAS7 = 0 (Week 11, omalizumab-naïve): 20 (54.1) n (%)
OR (95% CI) for rilzabrutinib vs. placebo, AAS7 = 0 (Week 11, omalizumab-naïve): 0.819
RRD (%) for rilzabrutinib vs. placebo (95% CI), AAS7 = 0 (Week 11, omalizumab-naïve): −4.7 %
Responder n (%), AAS7 = 0 (Week 11, omalizumab-naïve): 17 (45.9) n (%)
AAS7 = 0, Non-responder n (%) (Week 11, omalizumab-naïve): 19 (70.4) n (%)
AAS7 = 0, OR (95% CI) for rilzabrutinib vs. placebo (Week 11, omalizumab-naïve): 0.650
AAS7 = 0, RRD (%) for rilzabrutinib vs. placebo (95% CI) (Week 11, omalizumab-naïve): −8.6 %
AAS7 Post-baseline Mean (SD) (Week 11, omalizumab-naïve): 27.44 (24.07)
Participants with AAS7 = 0, Responder n (%) (Week 11, omalizumab-naïve): 8 (29.6) n (%)
AAS7 % Change difference for rilzabrutinib vs. placebo LS Mean (95% CI) (Week 12, ITT): 8.18 (−17.80, 34.16) %
AAS7 % Change from baseline LS Mean (SE) (Week 12, ITT): −54.80 (9.75) %
AAS7 Change difference for rilzabrutinib vs. placebo LS Mean (95% CI) (Week 12, ITT): 6.68 (−4.00, 17.35)
AAS7 Change from baseline LS Mean (SE) (Week 12, ITT): −28.63 (4.01)
AAS7 Post-baseline Mean (SD) (Week 12, ITT): 24.92 (22.92)
Non-responder n (%), AAS7 = 0 (Week 12, omalizumab-naïve): 24 (64.9) n (%)
OR (95% CI) for rilzabrutinib vs. placebo, AAS7 = 0 (Week 12, omalizumab-naïve): 0.516
RRD (%) for rilzabrutinib vs. placebo (95% CI), AAS7 = 0 (Week 12, omalizumab-naïve): −15.0 %
Responder n (%), AAS7 = 0 (Week 12, omalizumab-naïve): 13 (35.1) n (%)
AAS7 = 0, Non-responder n (%) (Week 12, omalizumab-naïve): 21 (77.8) n (%)
AAS7 = 0, OR (95% CI) for rilzabrutinib vs. placebo (Week 12, omalizumab-naïve): 0.571
AAS7 = 0, RRD (%) for rilzabrutinib vs. placebo (95% CI) (Week 12, omalizumab-naïve): −11.2 %
AAS7 Change difference for rilzabrutinib vs. placebo LS Mean (95% CI) (Week 12, omalizumab-naïve): 6.41 (−5.00, 17.81)
AAS7 Change from baseline LS Mean (SE) (Week 12, omalizumab-naïve): −26.98 (4.16)
AAS7 Post-baseline Mean (SD) (Week 12, omalizumab-naïve): 25.87 (23.04)
